Experimental data: patent US12448399B2, “Cereblon-based KRAS degrading PROTACs and uses related thereto” (Arvinas Operations, Inc., priority 2023, dated 2025)

Molecular target: T1, KRas-G12D (Homo sapiens, UniProt P01116, G12D)
T1 construct: insert the HiBiT tag onto the N-terminus of one or more of the endogenous KRas alleles; host or cells: AsPC-1 HiBiT-KRasG12D knock-in clone (one tagged allele, two untagged KRasG12D alleles)
Assay: HiBiT Degradation Assay (G12D), AsPC-1 HiBiT-KRasG12D cells, 24 hr
Format: cell-based
Settings: for Dmax: ASPC1, AsPC-1 cells, maximum degradation observed; for DC50: AsPC-1 cells
Method in brief: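 Degradation was read after 24 hr compound exposure (0.5% DMSO, 37° C) by Nano-Glo HiBiT lytic luminescence in AsPC-1 cells carrying a HiBiT tag on one of three KRasG12D alleles. Signal relative to DMSO gave DC50 and Dmax by 4-parameter fit; alamar blue fluorescence monitored cytotoxicity.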

T1 sequence (P01116 1-188 isoform P01116-2 G12D): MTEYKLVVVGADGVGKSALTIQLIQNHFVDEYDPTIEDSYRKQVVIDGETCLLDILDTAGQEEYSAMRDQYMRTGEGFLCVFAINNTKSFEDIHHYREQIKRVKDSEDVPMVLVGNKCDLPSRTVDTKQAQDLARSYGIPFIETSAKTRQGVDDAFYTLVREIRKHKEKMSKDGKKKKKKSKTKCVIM

Compound	Dmax [%]	DC50 [µM]
C#Cc1c(F)ccc2cc(O)cc(-c3ncc4c(N5CC6CCC(C5)N6)nc(OC[C@@H]5C[C@@H](OC6CCN(c7ccc8c(c7)CN(C7CCC(=O)NC7=O)C8=O)CC6)CN5C)nc4c3F)c12 (stereo partly drawn) [Compound 104]	> 70	< 5.1
C#Cc1c(F)ccc2cc(O)cc(-c3ncc4c(N5CC6CCC(C5)N6)nc(N(C)CCN5CCC(CC6CCN(CC7CCN(c8ccc9c(c8F)CN(C8CCC(=O)NC8=O)C9=O)CC7)CC6)CC5)nc4c3F)c12 (stereo not drawn) [Compound 105]	≤ 25	< 5.1
C#Cc1c(F)ccc2cc(O)cc(-c3ncc4c(N5CC6CCC(C5)N6)nc(OCCN5CCC(OC6CCN(CC7CCN(c8ccc9c(c8F)CN(C8CCC(=O)NC8=O)C9=O)CC7)CC6)CC5)nc4c3F)c12 (stereo not drawn) [Compound 106, 3-{5-[4-({4-[(1-{2-[(4-{3,8-diazabicyclo[3.2.1]octan-3-yl}-7-(8-ethynyl-7-fluoro-3-hydroxynaphthalen-1-yl)-8-fluoropyrido[4,3-d]pyrimidin-2-yl)oxy]ethyl}piperidin-4-yl)oxy]piperidin-1-yl}methyl)piperidin-1-yl]-4-fluoro-1-oxo-2,3-dihydro-1H-isoindol-2-yl}piperidine-2,6-dione]	> 70	< 5.1
C#Cc1c(F)ccc2cc(O)cc(-c3cnc4c(N5CC6CCC(C5)N6)nc(OCCN5CCC(CC6CCN(CC7CCN(c8ccc9c(c8F)CN(C8CCC(=O)NC8=O)C9=O)CC7)CC6)CC5)nc4c3)c12 (stereo not drawn) [Compound 107]		> 1
C#Cc1c(F)ccc2cc(O)cc(-c3ccc4c(N5CC6CCC(C5)N6)nc(OCCN5CCC(CC6CCN(CC7CCN(c8ccc9c(c8F)CN(C8CCC(=O)NC8=O)C9=O)CC7)CC6)CC5)nc4c3)c12 (stereo not drawn) [Compound 108]	≤ 25	< 5.1
C#Cc1c(F)ccc2cc(O)cc(-c3ncc4c(N5CC6CCC(C5)N6)nc(OCCN5CCC(CC6CCN(CC7CCN(c8ccc9c(c8Cl)CN(C8CCC(=O)NC8=O)C9=O)CC7)CC6)CC5)nc4c3F)c12 (stereo not drawn) [Compound 109, 3-(5-(4-((4-((1-(2-((4-(-3,8-diazabicyclo[3.2.1]octan-3-yl)-7-(8-ethynyl-7-fluoro-3-hydroxynaphthalen-1-yl)-8-fluoropyrido[4,3-d]pyrimidin-2-yl)oxy)ethyl)piperidin-4-yl)methyl)piperidin-1-yl)methyl)piperidin-1-yl)-4-chloro-1-oxoisoindolin-2-yl)piperidine-2,6-dione]	> 70	< 5.1
C#Cc1c(F)ccc2cc(O)cc(-c3ncc4c(N5CC6CCC(C5)N6)nc(OCCN5CCC(CC6CCN(CC7CCN(c8ccc9c(c8)C(=O)N(C8CCC(=O)NC8=O)C9)CC7)CC6)CC5)nc4c3F)c12 (stereo not drawn) [Compound 110, 3-{6-[4-({4-[(1-{2-[(4-{3,8-diazabicyclo[3.2.1]octan-3-yl}-7-(8-ethynyl-7-fluoro-3-hydroxynaphthalen-1-yl)-8-fluoropyrido[4,3-d]pyrimidin-2-yl)oxy]ethyl}piperidin-4-yl)methyl]piperidin-1-yl}methyl)piperidin-1-yl]-1-oxo-2,3-dihydro-1H-isoindol-2-yl}piperidine-2,6-dione]	> 70	< 5.1
C#Cc1c(F)ccc2cc(O)cc(-c3ncc4c(N5CC6CCC(C5)N6)nc(OCCN5CCC(CN6CCN(CC7CCN(c8ccc9c(c8)CN(C8CCC(=O)NC8=O)C9=O)CC7)CC6)CC5)nc4c3F)c12 (stereo not drawn) [Compound 111, 3-[5-[4-[[4-[[1-[2-[4-(3,8-diazabicyclo[3.2.1]octan-3-yl)-7-(8-ethynyl-7-fluoro-3-hydroxy-1-naphthyl)-8-fluoro-pyrido[4,3-d]pyrimidin-2-yl]oxyethyl]-4-piperidyl]methyl]piperazin-1-yl]methyl]-1-piperidyl]-1-oxo-isoindolin-2-yl]piperidine-2,6-dione]	> 70	< 5.1
